From PubChem BioAssay AID2202554 (NIEHS Division of Translational Toxicology (DTT))
Results filed as inconclusive are left out. Active and inactive are the calls of the source. No rule for the calls is given here.

system: S. typhimurium/E. coli reverse mutation, colony counts; assay: Bacterial reverse mutation test (aka Ames test) summary data
Method in brief: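 Revertant colony counts on plates, compared with untreated controls, after about two days of growth. Exposure with or without liver S9 (rat/hamster/mouse), dose range per strain, 20-min 37° C preincubation or direct plate incorporation. Strains: his⁻ Salmonella, trp⁻ E. coli WP2 uvrA pKM101.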

Structure (SMILES) | outcome
CCCCCCCCCCCCCCCCCCCCCCCCCCCCO | inactive; negative
O=C=S | active; weakly positive
NC(N)=S | inactive; negative
CC(=O)Nc1ccc(N=Nc2cc(C)ccc2O)cc1 | active; positive
CCC(C)O (centres undefined) | inactive; negative
Nc1ccc(Cl)c(N)c1 | active; positive
Cc1ccc(Cl)cc1N | inactive; negative
Nc1c(Br)cc([N+](=O)[O-])cc1[N+](=O)[O-] | active; positive
Cc1ccc(N)c([N+](=O)[O-])c1 | active; positive
COc1cc(N)ccc1C | active; positive
CCc1ccccc1 | inactive; negative
COP(=O)(O)O | inactive; negative
CC(=O)CC(C)C | inactive; negative
O=C(O)c1cc(N=Nc2ccc([N+](=O)[O-])cc2)ccc1O | active; positive
COc1ccc2nc(N)sc2c1 | active; positive
ClCc1ccccc1 | active; weakly positive
Cc1cc(Br)ccc1NC(=O)CCl | active; positive
O=C(O)c1ccccc1C(=O)O | inactive; negative
CC(=O)Nc1ccc(C)cc1 | active; weakly positive
